According to ChEMBL document CHEMBL5126566, “Comparison of three zinc binding groups for HDAC inhibitors - A potency, selectivity and enzymatic kinetics study” (Bioorg Med Chem Lett, 2022):
The source made the active and inactive calls. The rule behind the calls is not given here.

Experiments:
[1] = target: T1, Histone deacetylase 3 (Homo sapiens, UniProt O15379); experiment: Inhibition of HDAC3 (unknown origin) preincubated for 60 mins
[2] = target: T2, Histone deacetylase 2 (Homo sapiens, UniProt Q92769); experiment: Inhibition of HDAC2 (unknown origin) preincubated for 120 mins
[3] = target: T1, Histone deacetylase 3; experiment: Inhibition of HDAC3 (unknown origin) preincubated for 120 mins
[4] = target: T3, Histone deacetylase 1 (Homo sapiens, UniProt Q13547); experiment: Inhibition of HDAC1 (unknown origin) preincubated for 30 mins
[5] = target: T4, Histone deacetylase 7 (Homo sapiens, UniProt Q8WUI4); experiment: Inhibition of HDAC7 (unknown origin)
T4 sequence (Q8WUI4 whole entry): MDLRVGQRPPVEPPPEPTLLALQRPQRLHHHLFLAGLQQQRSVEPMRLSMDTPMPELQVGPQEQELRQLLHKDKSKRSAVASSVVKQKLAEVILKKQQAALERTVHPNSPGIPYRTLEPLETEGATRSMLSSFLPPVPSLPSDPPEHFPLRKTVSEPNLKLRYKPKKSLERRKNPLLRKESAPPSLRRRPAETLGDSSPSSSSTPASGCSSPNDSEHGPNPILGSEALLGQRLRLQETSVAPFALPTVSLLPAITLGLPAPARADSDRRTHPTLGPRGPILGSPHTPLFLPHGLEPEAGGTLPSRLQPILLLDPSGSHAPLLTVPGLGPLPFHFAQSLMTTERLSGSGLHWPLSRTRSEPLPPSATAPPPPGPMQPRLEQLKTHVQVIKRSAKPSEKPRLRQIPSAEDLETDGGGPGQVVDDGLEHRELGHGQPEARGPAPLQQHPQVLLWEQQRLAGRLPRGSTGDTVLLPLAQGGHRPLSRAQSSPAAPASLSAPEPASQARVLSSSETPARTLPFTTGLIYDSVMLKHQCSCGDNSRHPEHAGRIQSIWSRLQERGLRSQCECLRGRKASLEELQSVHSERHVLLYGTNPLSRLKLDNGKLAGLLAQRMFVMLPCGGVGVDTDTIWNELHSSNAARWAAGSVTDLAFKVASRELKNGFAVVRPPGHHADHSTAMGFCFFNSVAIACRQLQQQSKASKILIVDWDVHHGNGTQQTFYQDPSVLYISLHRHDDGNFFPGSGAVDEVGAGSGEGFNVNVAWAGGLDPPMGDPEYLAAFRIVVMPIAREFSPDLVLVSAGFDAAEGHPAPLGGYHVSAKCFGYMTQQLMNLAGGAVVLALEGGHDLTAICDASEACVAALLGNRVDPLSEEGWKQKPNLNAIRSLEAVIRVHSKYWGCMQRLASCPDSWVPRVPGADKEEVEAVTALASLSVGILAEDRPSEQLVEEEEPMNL

[6] = target: T3, Histone deacetylase 1; experiment: Inhibition of HDAC1 (unknown origin) preincubated for 90 mins
[7] = target: T2, Histone deacetylase 2; experiment: Inhibition of HDAC2 (unknown origin) preincubated for 30 mins
[8] = target: T3, Histone deacetylase 1; experiment: Inhibition of HDAC1 (unknown origin) preincubated for 5 mins
[9] = target: T2, Histone deacetylase 2; experiment: Inhibition of HDAC2 (unknown origin) preincubated for 90 mins
[10] = target: Histone deacetylase 4 (Homo sapiens, UniProt P56524); experiment: Inhibition of HDAC4 (unknown origin)
[11] = target: Histone deacetylase 9 (Homo sapiens, UniProt Q9UKV0); experiment: Inhibition of HDAC9 (unknown origin)
[12] = target: T1, Histone deacetylase 3; experiment: Inhibition of HDAC3 (unknown origin) preincubated for 5 mins
[13] = target: T1, Histone deacetylase 3; experiment: Inhibition of HDAC3 (unknown origin) preincubated for 90 mins
[14] = target: Histone deacetylase 5 (Homo sapiens, UniProt Q9UQL6); experiment: Inhibition of HDAC5 (unknown origin)
[15] = target: T5, Polyamine deacetylase HDAC10 (Homo sapiens, UniProt Q969S8); experiment: Inhibition of HDAC10 (unknown origin)
T5 sequence (Q969S8 whole entry): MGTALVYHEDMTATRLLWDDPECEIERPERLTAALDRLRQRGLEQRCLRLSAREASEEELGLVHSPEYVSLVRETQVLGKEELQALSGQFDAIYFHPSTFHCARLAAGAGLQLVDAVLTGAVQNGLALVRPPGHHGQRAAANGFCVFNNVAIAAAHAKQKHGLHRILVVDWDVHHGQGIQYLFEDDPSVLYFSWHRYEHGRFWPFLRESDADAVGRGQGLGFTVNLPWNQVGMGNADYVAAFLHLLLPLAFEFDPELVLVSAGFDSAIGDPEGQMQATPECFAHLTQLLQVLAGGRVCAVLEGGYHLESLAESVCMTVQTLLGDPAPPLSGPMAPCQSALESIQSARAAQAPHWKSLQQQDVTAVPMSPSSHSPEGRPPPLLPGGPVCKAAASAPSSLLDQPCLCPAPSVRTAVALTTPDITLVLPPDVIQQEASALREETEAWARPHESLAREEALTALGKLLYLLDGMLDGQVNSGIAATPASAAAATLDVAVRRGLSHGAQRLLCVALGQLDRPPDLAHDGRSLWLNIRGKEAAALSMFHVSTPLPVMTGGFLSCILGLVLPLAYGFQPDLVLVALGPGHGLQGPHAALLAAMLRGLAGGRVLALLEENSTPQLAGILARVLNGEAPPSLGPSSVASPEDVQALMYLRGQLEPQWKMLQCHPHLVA

[16] = tested on: MV4-11; experiment: Antiproliferative activity against human MV4-11 cells; assay type: functional, cell-based
[17] = target: T6, Histone deacetylase 11 (Homo sapiens, UniProt Q96DB2); experiment: Inhibition of HDAC11 (unknown origin)
T6 sequence (Q96DB2 whole entry): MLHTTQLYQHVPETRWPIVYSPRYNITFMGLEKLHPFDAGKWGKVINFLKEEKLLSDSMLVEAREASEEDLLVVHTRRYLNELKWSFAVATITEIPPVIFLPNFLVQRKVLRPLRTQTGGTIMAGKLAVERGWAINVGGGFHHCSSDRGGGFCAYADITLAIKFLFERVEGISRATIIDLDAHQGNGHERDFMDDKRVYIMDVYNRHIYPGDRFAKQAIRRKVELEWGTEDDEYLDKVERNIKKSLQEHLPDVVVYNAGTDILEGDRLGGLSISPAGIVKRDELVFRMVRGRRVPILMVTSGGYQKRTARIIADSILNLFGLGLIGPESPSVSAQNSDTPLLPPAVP

[18] = target: T3, Histone deacetylase 1; experiment: Inhibition of HDAC1 (unknown origin) preincubated for 120 mins
[19] = target: T1, Histone deacetylase 3; experiment: Inhibition of HDAC3 (unknown origin)
[20] = target: T7, Histone deacetylase 8 (Homo sapiens, UniProt Q9BY41); experiment: Inhibition of HDAC8 (unknown origin)
T7 sequence (Q9BY41 whole entry): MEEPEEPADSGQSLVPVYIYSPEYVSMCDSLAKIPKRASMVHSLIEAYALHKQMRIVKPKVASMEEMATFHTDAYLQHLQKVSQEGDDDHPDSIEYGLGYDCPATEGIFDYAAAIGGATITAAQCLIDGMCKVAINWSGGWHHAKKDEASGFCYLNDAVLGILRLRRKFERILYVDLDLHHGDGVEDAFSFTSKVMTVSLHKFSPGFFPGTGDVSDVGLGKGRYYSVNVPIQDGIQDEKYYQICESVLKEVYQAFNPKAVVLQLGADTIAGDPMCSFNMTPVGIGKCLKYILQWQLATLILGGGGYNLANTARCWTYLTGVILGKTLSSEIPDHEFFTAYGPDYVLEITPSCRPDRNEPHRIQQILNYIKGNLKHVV

[21] = target: T1, Histone deacetylase 3; experiment: Inhibition of HDAC3 (unknown origin) preincubated for 30 mins
[22] = target: T8, Protein deacetylase HDAC6 (Homo sapiens, UniProt Q9UBN7); experiment: Inhibition of HDAC6 (unknown origin)
T8 sequence (Q9UBN7 whole entry): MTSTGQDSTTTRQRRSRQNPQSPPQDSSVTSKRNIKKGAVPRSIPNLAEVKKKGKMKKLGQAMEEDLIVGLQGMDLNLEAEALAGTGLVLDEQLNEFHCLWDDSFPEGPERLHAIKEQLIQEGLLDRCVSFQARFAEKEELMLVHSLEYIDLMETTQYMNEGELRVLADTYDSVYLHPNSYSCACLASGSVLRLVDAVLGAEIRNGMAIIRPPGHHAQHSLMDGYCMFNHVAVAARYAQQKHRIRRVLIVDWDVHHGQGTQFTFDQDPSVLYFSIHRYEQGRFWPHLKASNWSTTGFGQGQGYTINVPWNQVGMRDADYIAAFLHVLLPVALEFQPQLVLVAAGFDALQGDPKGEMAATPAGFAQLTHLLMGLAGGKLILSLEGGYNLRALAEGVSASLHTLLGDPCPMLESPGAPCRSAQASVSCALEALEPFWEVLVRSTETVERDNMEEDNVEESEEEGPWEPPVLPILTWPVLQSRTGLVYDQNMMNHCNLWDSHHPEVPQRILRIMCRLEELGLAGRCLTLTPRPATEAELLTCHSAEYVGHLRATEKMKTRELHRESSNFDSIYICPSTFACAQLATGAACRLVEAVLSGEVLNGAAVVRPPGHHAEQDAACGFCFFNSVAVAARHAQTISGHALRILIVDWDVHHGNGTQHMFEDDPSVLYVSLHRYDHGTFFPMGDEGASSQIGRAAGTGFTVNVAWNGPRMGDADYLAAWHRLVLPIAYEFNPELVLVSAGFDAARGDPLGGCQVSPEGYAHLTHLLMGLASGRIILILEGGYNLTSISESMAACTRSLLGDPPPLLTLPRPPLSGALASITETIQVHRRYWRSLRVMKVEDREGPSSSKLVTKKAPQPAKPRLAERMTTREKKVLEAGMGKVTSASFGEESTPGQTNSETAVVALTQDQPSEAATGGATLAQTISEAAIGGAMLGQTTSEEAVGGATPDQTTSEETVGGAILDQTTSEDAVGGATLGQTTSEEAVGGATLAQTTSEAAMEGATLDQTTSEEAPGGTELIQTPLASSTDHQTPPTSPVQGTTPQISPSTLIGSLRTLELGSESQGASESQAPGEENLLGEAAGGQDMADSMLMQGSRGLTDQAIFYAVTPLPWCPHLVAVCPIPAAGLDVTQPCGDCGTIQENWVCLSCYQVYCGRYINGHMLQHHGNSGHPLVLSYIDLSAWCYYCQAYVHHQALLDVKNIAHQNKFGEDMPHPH

[23] = target: T3, Histone deacetylase 1; experiment: Inhibition of HDAC1 (unknown origin)
[24] = target: T2, Histone deacetylase 2; experiment: Inhibition of HDAC2 (unknown origin) preincubated for 5 mins
[25] = target: T3, Histone deacetylase 1; experiment: Competitive inhibition of HDAC1 (unknown origin) at 444 to 1500 nM by Lineweaver-Burk plot analysis; conditions: dose 444-1500 nM
[26] = target: T2, Histone deacetylase 2; experiment: Competitive inhibition of HDAC2 (unknown origin) at 444 to 1500 nM by Lineweaver-Burk plot analysis; conditions: dose 444-1500 nM
[27] = target: T2, Histone deacetylase 2; experiment: Inhibition of HDAC2 (unknown origin)
[28] = target: T2, Histone deacetylase 2; experiment: Inhibition of HDAC2 (unknown origin) preincubated for 60 mins
[29] = target: T3, Histone deacetylase 1; experiment: Inhibition of HDAC1 (unknown origin) preincubated for 60 mins
[30] = target: T1, Histone deacetylase 3; experiment: Competitive inhibition of HDAC3 (unknown origin) at 444 to 1500 nM by Lineweaver-Burk plot analysis; conditions: dose 444-1500 nM

T3 sequence (Q13547 whole entry): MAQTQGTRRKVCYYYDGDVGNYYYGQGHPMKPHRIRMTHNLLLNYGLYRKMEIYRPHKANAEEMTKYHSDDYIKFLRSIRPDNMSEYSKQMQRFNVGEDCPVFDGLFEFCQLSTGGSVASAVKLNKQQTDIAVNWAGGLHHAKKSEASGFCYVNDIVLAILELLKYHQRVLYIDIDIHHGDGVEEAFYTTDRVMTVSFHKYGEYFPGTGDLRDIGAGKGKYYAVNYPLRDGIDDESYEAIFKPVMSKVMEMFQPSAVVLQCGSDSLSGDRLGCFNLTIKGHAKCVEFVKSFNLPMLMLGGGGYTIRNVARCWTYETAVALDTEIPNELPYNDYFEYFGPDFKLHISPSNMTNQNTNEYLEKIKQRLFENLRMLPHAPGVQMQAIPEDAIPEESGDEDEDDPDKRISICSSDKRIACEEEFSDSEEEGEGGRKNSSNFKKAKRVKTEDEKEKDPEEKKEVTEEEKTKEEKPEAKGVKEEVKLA
T1 sequence (O15379 whole entry): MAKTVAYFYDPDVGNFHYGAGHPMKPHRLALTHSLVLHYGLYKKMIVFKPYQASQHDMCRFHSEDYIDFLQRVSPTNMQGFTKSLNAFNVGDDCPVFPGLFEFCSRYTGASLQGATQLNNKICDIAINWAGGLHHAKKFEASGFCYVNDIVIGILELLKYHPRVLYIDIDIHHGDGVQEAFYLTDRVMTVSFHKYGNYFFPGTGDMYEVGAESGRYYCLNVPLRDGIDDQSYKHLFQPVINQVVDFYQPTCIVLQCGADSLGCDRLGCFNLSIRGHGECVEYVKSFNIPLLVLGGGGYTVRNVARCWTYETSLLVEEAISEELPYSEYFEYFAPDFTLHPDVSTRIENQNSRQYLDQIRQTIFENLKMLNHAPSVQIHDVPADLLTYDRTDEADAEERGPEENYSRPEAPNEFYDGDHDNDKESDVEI
T2 sequence (Q92769 whole entry): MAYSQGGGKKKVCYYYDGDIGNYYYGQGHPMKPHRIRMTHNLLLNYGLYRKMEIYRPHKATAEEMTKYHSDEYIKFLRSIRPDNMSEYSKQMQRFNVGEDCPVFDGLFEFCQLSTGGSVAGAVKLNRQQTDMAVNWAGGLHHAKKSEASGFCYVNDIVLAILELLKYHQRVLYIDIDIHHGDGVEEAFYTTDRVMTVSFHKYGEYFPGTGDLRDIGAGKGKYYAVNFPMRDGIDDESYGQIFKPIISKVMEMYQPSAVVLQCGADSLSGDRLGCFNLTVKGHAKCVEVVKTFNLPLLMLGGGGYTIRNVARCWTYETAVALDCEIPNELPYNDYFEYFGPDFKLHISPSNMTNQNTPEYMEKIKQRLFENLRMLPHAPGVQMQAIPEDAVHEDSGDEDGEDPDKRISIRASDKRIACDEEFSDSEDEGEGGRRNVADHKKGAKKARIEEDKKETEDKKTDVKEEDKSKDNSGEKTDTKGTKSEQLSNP
Histone deacetylase 5, sequence (Q9UQL6 whole entry): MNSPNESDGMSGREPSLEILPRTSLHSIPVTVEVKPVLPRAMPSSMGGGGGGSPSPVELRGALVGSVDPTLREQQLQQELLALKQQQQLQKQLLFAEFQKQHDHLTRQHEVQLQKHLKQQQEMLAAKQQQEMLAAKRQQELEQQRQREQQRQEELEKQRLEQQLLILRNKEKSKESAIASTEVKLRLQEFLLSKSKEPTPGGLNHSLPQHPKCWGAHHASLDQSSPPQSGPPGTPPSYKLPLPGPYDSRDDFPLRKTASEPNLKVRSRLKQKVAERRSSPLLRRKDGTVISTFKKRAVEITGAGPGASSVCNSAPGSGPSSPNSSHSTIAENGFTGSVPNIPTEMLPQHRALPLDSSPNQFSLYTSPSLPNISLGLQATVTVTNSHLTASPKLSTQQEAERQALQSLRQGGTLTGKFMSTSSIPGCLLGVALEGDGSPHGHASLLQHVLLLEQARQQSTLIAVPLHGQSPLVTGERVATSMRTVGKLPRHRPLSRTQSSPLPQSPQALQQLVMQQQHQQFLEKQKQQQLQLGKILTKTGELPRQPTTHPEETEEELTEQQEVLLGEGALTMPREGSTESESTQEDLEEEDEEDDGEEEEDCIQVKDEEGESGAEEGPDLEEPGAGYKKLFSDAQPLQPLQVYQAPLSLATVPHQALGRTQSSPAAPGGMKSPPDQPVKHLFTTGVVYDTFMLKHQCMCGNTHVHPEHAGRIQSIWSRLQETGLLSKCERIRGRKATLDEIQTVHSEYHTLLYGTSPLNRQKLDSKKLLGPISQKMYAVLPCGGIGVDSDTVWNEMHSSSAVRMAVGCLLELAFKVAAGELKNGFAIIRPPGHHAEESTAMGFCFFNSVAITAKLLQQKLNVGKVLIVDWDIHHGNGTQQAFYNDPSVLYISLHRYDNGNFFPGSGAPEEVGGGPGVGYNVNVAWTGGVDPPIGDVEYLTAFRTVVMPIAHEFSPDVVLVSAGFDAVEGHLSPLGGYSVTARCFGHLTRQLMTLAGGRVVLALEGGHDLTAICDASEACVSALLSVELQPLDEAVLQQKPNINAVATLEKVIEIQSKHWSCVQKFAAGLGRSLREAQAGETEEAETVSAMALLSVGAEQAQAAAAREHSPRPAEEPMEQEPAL
Histone deacetylase 4, sequence (P56524 whole entry): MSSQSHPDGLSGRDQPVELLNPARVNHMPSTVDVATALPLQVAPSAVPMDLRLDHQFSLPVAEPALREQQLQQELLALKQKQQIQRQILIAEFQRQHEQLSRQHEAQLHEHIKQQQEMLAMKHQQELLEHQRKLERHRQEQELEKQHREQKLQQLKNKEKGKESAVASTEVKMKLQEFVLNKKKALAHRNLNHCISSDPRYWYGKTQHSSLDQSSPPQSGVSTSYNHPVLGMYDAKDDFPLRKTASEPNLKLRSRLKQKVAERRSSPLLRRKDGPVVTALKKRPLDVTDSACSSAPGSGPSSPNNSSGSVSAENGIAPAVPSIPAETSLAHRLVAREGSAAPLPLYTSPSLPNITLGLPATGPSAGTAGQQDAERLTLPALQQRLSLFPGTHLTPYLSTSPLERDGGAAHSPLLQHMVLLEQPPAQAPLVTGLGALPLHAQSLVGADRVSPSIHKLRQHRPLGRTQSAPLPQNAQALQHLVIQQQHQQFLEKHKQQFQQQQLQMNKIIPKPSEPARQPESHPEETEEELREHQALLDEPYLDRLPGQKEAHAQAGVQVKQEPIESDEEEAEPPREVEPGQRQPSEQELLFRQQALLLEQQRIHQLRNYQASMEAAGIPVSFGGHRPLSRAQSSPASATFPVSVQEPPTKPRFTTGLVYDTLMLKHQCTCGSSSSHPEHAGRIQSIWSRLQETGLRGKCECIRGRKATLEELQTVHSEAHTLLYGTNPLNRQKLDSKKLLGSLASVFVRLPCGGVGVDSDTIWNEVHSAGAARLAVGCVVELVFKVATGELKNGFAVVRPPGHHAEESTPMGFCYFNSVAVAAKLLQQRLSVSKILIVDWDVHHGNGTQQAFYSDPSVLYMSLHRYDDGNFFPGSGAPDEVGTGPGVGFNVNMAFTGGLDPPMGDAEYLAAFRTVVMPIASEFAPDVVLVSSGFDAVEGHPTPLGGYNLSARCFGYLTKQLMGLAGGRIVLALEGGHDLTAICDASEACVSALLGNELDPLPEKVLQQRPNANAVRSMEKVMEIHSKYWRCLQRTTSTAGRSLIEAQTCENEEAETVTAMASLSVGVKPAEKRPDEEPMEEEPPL
Histone deacetylase 9, sequence (Q9UKV0 whole entry): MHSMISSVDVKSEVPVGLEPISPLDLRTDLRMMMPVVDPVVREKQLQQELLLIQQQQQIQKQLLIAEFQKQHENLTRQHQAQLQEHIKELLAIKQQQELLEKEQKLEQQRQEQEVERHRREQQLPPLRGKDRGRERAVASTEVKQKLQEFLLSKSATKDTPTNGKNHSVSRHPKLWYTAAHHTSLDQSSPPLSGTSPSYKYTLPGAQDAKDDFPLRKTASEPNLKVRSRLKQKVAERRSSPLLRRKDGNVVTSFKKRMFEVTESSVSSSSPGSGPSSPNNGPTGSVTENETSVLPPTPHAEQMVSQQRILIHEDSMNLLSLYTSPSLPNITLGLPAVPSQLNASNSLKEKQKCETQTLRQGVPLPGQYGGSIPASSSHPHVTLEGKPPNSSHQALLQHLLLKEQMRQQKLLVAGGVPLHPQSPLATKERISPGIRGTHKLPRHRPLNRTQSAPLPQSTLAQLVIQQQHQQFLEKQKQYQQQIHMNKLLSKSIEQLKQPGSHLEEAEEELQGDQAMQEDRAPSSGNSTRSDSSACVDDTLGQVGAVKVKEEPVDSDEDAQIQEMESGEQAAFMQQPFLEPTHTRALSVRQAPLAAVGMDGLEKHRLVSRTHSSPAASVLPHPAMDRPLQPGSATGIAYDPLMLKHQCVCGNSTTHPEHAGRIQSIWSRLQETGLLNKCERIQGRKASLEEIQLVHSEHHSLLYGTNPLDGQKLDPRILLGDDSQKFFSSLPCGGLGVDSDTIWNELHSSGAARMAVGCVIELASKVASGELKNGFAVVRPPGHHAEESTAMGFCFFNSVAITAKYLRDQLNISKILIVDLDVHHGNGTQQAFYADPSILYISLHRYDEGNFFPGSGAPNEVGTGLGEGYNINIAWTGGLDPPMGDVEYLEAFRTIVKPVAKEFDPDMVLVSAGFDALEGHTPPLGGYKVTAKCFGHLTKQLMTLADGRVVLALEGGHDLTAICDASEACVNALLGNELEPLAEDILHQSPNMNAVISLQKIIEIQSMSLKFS

Nc1ccccc1NC(=O)CCCCCCC(=O)Nc1ccccc1
IC50 [1]: 0.535 µM
IC50 [2]: 1.27 µM
IC50 [3]: 0.463 µM
IC50 [4]: 0.91 µM
IC50 [5]: > 10 µM
IC50 [6]: 1.22 µM
IC50 [7]: 1.17 µM
IC50 [8]: 0.944 µM
IC50 [9]: 1.36 µM
IC50 [10]: > 10 µM
IC50 [11]: > 10 µM
IC50 [12]: 0.659 µM
IC50 [13]: 0.391 µM
IC50 [14]: > 10 µM
IC50 [15]: > 10 µM
IC50 [16]: 7.24 µM
IC50 [17]: > 10 µM
IC50 [18]: 1.07 µM
IC50 [19]: 0.379 µM
IC50 [20]: > 10 µM
IC50 [21]: 0.559 µM
IC50 [22]: > 10 µM
IC50 [23]: 0.828 µM
IC50 [24]: 1.16 µM
inhibition [25]: Active
inhibition [26]: Active
IC50 [27]: 0.53 µM
IC50 [28]: 1.17 µM
IC50 [29]: 1.14 µM
inhibition [30]: Active
